This experiment deals with T1, human serotonin 5-HT2A receptor (Homo sapiens, UniProt P28223).
T1 construct: host or cells: CHO-K1
As to the kind of experiment: Radioligand displacement assay at 5-HT2A ([3H]-ketanserin, CHO-K1 cells). The experiment is classed as binding. The following applies: CHO-K1 cells expressing human 5-HT2A, read-out: Ki ± SD (n), 5-HT2A. On the technique in general: Loss of bound radioactivity is the signal in a displacement assay; it reports binding, not function.

T1 sequence (P28223 whole entry): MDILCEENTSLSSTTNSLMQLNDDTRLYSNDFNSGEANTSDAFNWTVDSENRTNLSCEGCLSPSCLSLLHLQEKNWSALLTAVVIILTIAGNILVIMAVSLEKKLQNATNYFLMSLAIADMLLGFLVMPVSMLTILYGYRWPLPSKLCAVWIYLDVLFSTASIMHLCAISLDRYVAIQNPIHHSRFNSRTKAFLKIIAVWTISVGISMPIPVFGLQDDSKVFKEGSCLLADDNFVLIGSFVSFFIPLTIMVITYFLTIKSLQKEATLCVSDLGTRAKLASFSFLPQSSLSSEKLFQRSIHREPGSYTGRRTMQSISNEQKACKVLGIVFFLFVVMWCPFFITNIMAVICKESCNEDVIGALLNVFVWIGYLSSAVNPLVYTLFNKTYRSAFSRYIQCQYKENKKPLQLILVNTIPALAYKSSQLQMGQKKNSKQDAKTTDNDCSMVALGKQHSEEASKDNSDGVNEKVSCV

For the molecule `CN1CCC(N(Cc2ccc(F)cc2)C(=O)NCc2ccc(OCCCN3CCCCC3)cc2)CC1` [ST-2300, 1-(4-Fluorobenzyl)-1-(1-methylpiperidin-4-yl)-3-{4-[3-(piperidin-1-yl)propoxy]benzyl}urea], the Ki (usually a measure of affinity in units of concentration, obtained from inhibition or displacement) came out at 1.3 ± 0.331 µM.

Values taken from publication PMC9138994 (Biomolecules, 2022).
